Tests used:
Experiment in all cases: Competitive isoTOP-ABPP in situ (fragment-treated cells)
Format in all cases: cell-based
[1] = target: T1, cysteines in MDA-MB-231 and Ramos cells (Homo sapiens, UniProt P35611)
T1 sequence (P35611 1-737): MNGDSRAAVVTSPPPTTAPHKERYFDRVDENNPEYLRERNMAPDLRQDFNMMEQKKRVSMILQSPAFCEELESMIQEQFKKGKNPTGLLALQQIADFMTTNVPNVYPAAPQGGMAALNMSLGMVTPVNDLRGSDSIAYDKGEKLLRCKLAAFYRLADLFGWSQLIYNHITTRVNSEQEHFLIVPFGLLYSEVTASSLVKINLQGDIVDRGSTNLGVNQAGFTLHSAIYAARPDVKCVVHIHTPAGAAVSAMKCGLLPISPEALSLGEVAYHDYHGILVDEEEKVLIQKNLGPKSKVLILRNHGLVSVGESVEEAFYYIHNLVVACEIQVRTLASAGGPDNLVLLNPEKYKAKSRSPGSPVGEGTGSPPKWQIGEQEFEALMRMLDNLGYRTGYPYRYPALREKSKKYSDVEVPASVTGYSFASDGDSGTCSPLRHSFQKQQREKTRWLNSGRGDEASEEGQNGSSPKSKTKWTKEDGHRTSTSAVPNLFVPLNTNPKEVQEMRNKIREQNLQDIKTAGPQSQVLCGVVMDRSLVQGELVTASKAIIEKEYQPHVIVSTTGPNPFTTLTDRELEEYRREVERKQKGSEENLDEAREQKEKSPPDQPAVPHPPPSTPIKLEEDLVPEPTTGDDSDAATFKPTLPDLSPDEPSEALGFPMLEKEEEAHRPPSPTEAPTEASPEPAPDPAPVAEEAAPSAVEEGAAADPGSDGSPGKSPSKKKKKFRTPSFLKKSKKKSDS

[2] = target: T2, cysteines in MDA-MB-231 and Ramos cells (Homo sapiens, UniProt Q9NQC3)
T2 sequence (Q9NQC3 1-1192): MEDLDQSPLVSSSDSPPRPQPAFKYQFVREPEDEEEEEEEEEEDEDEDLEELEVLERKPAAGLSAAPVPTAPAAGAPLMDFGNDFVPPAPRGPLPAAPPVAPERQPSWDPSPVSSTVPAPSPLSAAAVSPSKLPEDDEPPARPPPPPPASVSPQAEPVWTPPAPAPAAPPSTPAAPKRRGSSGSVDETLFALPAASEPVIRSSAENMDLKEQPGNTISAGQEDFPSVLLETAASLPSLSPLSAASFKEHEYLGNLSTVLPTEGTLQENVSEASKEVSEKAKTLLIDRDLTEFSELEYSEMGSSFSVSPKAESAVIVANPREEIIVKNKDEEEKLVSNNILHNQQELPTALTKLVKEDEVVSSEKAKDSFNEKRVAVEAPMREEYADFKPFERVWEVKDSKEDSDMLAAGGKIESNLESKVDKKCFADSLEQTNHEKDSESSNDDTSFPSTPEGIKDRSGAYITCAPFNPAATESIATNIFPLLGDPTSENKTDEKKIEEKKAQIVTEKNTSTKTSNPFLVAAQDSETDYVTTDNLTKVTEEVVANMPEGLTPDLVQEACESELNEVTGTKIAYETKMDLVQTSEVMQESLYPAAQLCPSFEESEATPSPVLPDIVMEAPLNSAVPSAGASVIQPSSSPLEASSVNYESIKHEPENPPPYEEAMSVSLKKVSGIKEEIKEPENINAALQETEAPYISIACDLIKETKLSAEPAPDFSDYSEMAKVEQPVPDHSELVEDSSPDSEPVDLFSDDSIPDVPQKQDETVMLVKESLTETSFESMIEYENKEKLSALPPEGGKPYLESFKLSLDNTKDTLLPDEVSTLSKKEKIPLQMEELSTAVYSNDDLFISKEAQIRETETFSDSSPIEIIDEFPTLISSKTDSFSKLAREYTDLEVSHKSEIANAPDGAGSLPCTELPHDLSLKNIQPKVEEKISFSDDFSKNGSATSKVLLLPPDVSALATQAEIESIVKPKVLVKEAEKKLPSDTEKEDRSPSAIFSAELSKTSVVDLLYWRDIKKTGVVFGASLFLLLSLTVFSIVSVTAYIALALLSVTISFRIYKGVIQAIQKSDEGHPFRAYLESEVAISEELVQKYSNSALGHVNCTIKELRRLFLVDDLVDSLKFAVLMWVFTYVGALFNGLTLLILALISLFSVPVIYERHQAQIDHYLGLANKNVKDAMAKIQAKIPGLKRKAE

[3] = target: T3, cysteines in MDA-MB-231 and Ramos cells (Homo sapiens, UniProt Q9HAV7)
T3 sequence (Q9HAV7 28-217): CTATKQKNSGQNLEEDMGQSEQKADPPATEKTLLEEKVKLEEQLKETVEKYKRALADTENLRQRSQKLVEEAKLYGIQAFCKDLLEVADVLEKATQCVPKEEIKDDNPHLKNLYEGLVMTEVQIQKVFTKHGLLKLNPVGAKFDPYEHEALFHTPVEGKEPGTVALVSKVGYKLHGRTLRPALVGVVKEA

[4] = target: T4, cysteines in MDA-MB-231 and Ramos cells (Homo sapiens, UniProt P31943)
T4 sequence (P31943 1-449): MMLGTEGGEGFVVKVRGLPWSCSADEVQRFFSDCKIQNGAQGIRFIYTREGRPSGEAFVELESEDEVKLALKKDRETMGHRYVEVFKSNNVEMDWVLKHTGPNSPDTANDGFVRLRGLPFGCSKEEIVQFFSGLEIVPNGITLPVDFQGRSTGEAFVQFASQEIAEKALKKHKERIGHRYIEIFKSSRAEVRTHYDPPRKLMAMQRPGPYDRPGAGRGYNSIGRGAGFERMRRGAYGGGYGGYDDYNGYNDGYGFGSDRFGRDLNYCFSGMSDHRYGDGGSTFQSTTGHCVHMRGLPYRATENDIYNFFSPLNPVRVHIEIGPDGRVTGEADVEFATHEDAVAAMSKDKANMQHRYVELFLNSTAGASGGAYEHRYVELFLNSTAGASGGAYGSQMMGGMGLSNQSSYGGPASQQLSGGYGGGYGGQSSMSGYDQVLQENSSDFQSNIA

[5] = target: cysteines in MDA-MB-231 and Ramos cells (Homo sapiens, UniProt Q93009)
cysteines in MDA-MB-231 and Ramos cells (Homo sapiens, UniProt Q93009), sequence (Q93009 whole entry): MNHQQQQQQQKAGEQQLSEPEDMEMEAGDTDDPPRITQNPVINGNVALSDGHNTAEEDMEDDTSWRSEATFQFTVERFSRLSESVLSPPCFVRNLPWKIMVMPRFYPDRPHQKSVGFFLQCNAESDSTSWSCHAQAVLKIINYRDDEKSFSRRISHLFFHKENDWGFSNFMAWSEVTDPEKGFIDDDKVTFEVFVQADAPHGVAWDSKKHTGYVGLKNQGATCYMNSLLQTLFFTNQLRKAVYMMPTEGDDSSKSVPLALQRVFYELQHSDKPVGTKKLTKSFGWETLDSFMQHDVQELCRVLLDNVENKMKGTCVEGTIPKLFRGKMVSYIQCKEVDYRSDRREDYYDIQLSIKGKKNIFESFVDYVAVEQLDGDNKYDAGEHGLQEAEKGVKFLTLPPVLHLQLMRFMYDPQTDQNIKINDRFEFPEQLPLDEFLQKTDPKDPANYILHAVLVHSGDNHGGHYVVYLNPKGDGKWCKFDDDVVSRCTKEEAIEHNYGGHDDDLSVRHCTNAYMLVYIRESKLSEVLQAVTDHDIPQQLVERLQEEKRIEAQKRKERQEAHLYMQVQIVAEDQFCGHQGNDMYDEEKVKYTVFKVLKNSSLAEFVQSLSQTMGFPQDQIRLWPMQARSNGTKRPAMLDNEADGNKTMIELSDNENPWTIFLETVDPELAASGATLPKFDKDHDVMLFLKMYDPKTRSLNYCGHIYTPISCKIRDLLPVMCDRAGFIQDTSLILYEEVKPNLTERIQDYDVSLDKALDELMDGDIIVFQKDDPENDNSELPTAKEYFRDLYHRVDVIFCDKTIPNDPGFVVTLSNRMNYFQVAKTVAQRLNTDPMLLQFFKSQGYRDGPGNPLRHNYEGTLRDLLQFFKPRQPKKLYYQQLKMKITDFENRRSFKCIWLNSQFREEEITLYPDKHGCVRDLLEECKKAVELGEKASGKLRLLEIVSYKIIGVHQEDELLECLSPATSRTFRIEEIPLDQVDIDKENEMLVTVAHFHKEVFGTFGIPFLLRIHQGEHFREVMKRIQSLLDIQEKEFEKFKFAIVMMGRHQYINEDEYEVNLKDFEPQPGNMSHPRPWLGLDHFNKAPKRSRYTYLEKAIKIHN

[6] = target: cysteines in MDA-MB-231 and Ramos cells (Homo sapiens, UniProt P15121)

Row | Compound | isoTOP-ABPP ratio P35611_C68 ([1]; 200 μM, insitu, 231) | isoTOP-ABPP ratio Q9NQC3_C1101 ([2]; 200 μM, insitu, 231) | isoTOP-ABPP ratio Q9HAV7_C124 ([3]; 200 μM, insitu, 231) | isoTOP-ABPP ratio P31943_C267 ([4]; 200 μM, insitu, 231) | isoTOP-ABPP ratio Q93009_C223 ([5]; 200 μM, insitu, 231) | isoTOP-ABPP ratio P15121_C299 ([6]; 200 μM, insitu, 231) | other results
1 | CC(C)CCOCCNC(=O)CCl [compound 27] | 0.9 | 1.4 | 0.6 | 1.1 | 1.1 | 0.5 | 
2 | COc1cc2c(cc1OC)CN(C(=O)CCl)CC2 [compound 8] |  |  |  |  |  |  | isoTOP-ABPP reactivity P35611_C68 ADD1 ([1]; 200 μM, insitu, 231): 2.4; isoTOP-ABPP reactivity Q9HAV7_C124 GRPEL1 ([3]; 200 μM, insitu, 231): 2.2; isoTOP-ABPP reactivity P31943_C267 HNRNPH1 ([4]; 200 μM, insitu, 231): 5.3; isoTOP-ABPP reactivity Q93009_C223 USP7 ([5]; 200 μM, insitu, 231): 20.0; isoTOP-ABPP reactivity P15121_C299 AKR1B1 ([6]; 200 μM, insitu, 231): 1.7
3 | COc1ccc(C2CC(c3cccs3)=NN2C(=O)CCl)cc1 (stereo not shown) [compound 4] |  |  |  |  |  |  | isoTOP-ABPP reactivity P35611_C68 ADD1 ([1]; 100 μM in situ 231): 4.3; isoTOP-ABPP reactivity Q9NQC3_C1101 RTN4 ([2]; 100 μM in situ 231): 20.0; isoTOP-ABPP reactivity Q9HAV7_C124 GRPEL1 ([3]; 100 μM in situ 231): 1.7; isoTOP-ABPP reactivity P31943_C267 HNRNPH1 ([4]; 100 μM in situ 231): 6.0; isoTOP-ABPP reactivity Q93009_C223 USP7 ([5]; 100 μM in situ 231): 6.8; isoTOP-ABPP reactivity P15121_C299 AKR1B1 ([6]; 100 μM in situ 231): 1.0
4 | O=C(CCl)Nc1cccc2ncccc12 [compound 51] | 1.0 | 1.2 |  | 1.3 | 1.0 | 0.9 | 
5 | COc1ccccc1OCCNC(=O)CCl [compound 28] | 1.7 |  |  |  | 1.0 | 0.8 | 
6 | O=C(CCl)N1CCN(S(=O)(=O)c2ccccc2F)CC1 [compound 10] | 1.9 | 20.0 | 1.0 | 4.8 | 2.5 | 20.0 | isoTOP-ABPP ratio P31943_C267 ([4]; 200 μM, insitu, ramos): 2.5
7 | CC1CCc2ccccc2N1C(=O)CCl (stereo not shown) [compound 45] | 20.0 |  | 2.1 | 3.6 | 20.0 | 1.0 | 
8 | Cc1ccc(C=C(C#N)C(=O)NCCN2CCOCC2)cc1 [compound 41] | 0.9 | 1.0 | 0.6 | 1.0 |  | 0.9 | 
9 | COc1ccc2c(c1)CCCN2C(=O)CCl [compound 2] |  |  |  |  |  |  | isoTOP-ABPP reactivity P35611_C68 ADD1 ([1]; 200 μM, insitu, 231): 5.8; isoTOP-ABPP reactivity Q9NQC3_C1101 RTN4 ([2]; 200 μM, insitu, 231): 12.0; isoTOP-ABPP reactivity Q9HAV7_C124 GRPEL1 ([3]; 200 μM, insitu, 231): 3.2; isoTOP-ABPP reactivity P31943_C267 HNRNPH1 ([4]; 200 μM, insitu, 231): 3.8; isoTOP-ABPP reactivity P15121_C299 AKR1B1 ([6]; 200 μM, insitu, 231): 0.9
10 | C=CC(=O)Nc1cc(F)c(N2CCN(C(=O)OC(C)(C)C)CC2)c(F)c1 [compound 38] | 1.4 | 20.0 | 1.0 | 1.2 | 0,8 | 1.0 | 
11 | O=C(CCl)NC(=O)NC12CC3CC(CC(C3)C1)C2 [compound 12] | 3.6 | 20.0 | 1.1 | 5.0 | 3.1 | 0.7 | 
12 | C=CC(=O)N(Cc1cccnc1)c1cc(C(F)(F)F)cc(C(F)(F)F)c1 [compound 31] |  | 12.8 |  | 0.7 |  | 0.8 | isoTOP-ABPP ratio P31943_C267 ([4]; 200 μM, insitu, ramos): 0.9; isoTOP-ABPP ratio P15121_C299 ([6]; 200 μM, insitu, ramos): 1.3
13 | Cn1cc(S(=O)(=O)N2CCOCC2)cc1C(=O)NC(=O)CCl [compound 11] |  |  |  |  |  |  | isoTOP-ABPP ratio P35611_C68 ([1]; 100 μM in situ 231): 0.9; isoTOP-ABPP ratio Q9NQC3_C1101 ([2]; 100 μM in situ 231): 1.1; isoTOP-ABPP ratio Q9HAV7_C124 ([3]; 100 μM in situ 231): 0.9; isoTOP-ABPP ratio P31943_C267 ([4]; 100 μM in situ 231): 0.9; isoTOP-ABPP ratio Q93009_C223 ([5]; 100 μM in situ 231): 1.0; isoTOP-ABPP ratio P15121_C299 ([6]; 100 μM in situ 231): 0.7
14 | O=C(CCl)NCCc1c[nH]c2ccccc12 [compound 13] | 1.1 |  |  | 1.1 |  |  | isoTOP-ABPP ratio P35611_C68 ([1]; 200 μM, insitu, ramos): 1.0; isoTOP-ABPP ratio P31943_C267 ([4]; 200 μM, insitu, ramos): 1.2; isoTOP-ABPP ratio Q93009_C223 ([5]; 200 μM, insitu, ramos): 1.3; isoTOP-ABPP ratio P15121_C299 ([6]; 200 μM, insitu, ramos): 0.8
15 | O=C(CCl)N1CCN(CC(=O)N2CCOCC2)CC1 [compound 29] |  |  |  |  |  |  | isoTOP-ABPP ratio Q9HAV7_C124 ([3]; 200 μM, insitu, ramos): 1.0; isoTOP-ABPP ratio P31943_C267 ([4]; 200 μM, insitu, ramos): 1.4; isoTOP-ABPP ratio Q93009_C223 ([5]; 200 μM, insitu, ramos): 1.0; isoTOP-ABPP ratio P15121_C299 ([6]; 200 μM, insitu, ramos): 1.1
16 | O=C(CCl)NC12CC3CC(CC(C3)C1)C2 [compound 21] | 0.8 | 2.1 | 1.7 | 1.5 | 1.8 | 2.7 | 
17 | O=C(CCl)N1CCC(Cc2ccccc2)CC1 [compound 9] |  |  |  |  |  |  | isoTOP-ABPP reactivity P35611_C68 ADD1 ([1]; 200 μM, insitu, 231): 4.3; isoTOP-ABPP reactivity Q9NQC3_C1101 RTN4 ([2]; 200 μM, insitu, 231): 20.0; isoTOP-ABPP reactivity Q9HAV7_C124 GRPEL1 ([3]; 200 μM, insitu, 231): 4.7; isoTOP-ABPP reactivity P31943_C267 HNRNPH1 ([4]; 200 μM, insitu, 231): 2.1; isoTOP-ABPP reactivity P15121_C299 AKR1B1 ([6]; 200 μM, insitu, 231): 1.4
